≈ marks a conversion by molar mass, not a printed value.
How the values were obtained:
Type in all cases: functional
Streptococcus pneumoniae [1] = experiment: Antibacterial activity against Streptococcus pneumoniae by NCCLS M27A method
Aspergillus niger = experiment: Antifungal activity against Aspergillus niger by NCCLS M27A method
Staphylococcus aureus [2] = experiment: Antibacterial activity against Staphylococcus aureus 2999 by NCCLS M27A method
Aspergillus fumigatus = experiment: Antifungal activity against Aspergillus fumigatus by NCCLS M27A method
Enterococcus faecalis [3] = experiment: Antibacterial activity against Streptococcus faecalis 1362/3 by NCCLS M27A method
Haemophilus influenzae [4] = experiment: Antibacterial activity against Haemophilus influenzae by NCCLS M27A method
Candida albicans = experiment: Antifungal activity against Candida albicans by NCCLS M27A method
Escherichia coli [5] = experiment: Antibacterial activity against Escherichia coli 1074 by NCCLS M27A method
Neisseria gonorrhoeae [6] = experiment: Antibacterial activity against Neisseria gonorrhoeae by NCCLS M27A method
Staphylococcus aureus [7] = experiment: Antibacterial activity against Staphylococcus aureus 2999
Haemophilus influenzae [8] = experiment: Antibacterial activity against Haemophilus influenzae
Neisseria gonorrhoeae [9] = experiment: Antibacterial activity against Neisseria gonorrhoeae
Streptococcus pneumoniae [10] = experiment: Antibacterial activity against Streptococcus pneumoniae
Enterococcus faecalis [11] = experiment: Antibacterial activity against Streptococcus faecalis 1362/3
Escherichia coli [12] = experiment: Antibacterial activity against Escherichia coli 1074

Row | SMILES | MIC (Streptococcus pneumoniae [1]) [µg/mL] | MIC (Aspergillus niger) [µg/mL] | MIC (Staphylococcus aureus [2]) [µg/mL] | MIC (Aspergillus fumigatus) [µg/mL] | MIC (Enterococcus faecalis [3]) [µg/mL] | MIC (Haemophilus influenzae [4]) [µg/mL] | MIC (Candida albicans) [µg/mL] | MIC (Escherichia coli [5]) [µg/mL] | MIC (Neisseria gonorrhoeae [6]) [µg/mL] | MIC (Staphylococcus aureus [7]) [µg/mL] | MIC (Haemophilus influenzae [8]) [µg/mL] | MIC (Neisseria gonorrhoeae [9]) [µg/mL] | MIC (Streptococcus pneumoniae [10]) [µg/mL] | MIC (Enterococcus faecalis [11]) [µg/mL] | MIC (Escherichia coli [12]) [µg/mL]
1 | CCC1/C=C/[C@H](O)[C@H](C)OC(=O)/C(C)=C\CC(=O)NC2=CC(=O)c3c(cc(C)c(O)c3C(=O)CC1)C2=O (some centres undefined) [HYGROCIN A] | 16 (≈ 31.4 µM) | 32 (≈ 62.8 µM) | 128 (≈ 251 µM) | 16 (≈ 31.4 µM) | 128 (≈ 251 µM) | 128 (≈ 251 µM) | 128 (≈ 251 µM) | 128 (≈ 251 µM) | 64 (≈ 126 µM) |  |  |  |  |  | 
2 | CCC1/C=C/[C@H](O)[C@H](C)OC(=O)[C@@]2(C)C=CC(=O)NC3=C2C(=O)c2c(cc(C)c(O)c2C(=O)CC1)C3=O (some centres undefined) [HYGROCIN B] | 128 (≈ 252 µM) | 64 (≈ 126 µM) | 128 (≈ 252 µM) | 32 (≈ 63 µM) | 128 (≈ 252 µM) | 128 (≈ 252 µM) | 128 (≈ 252 µM) | 128 (≈ 252 µM) | 128 (≈ 252 µM) |  |  |  |  |  | 
3 | CO[C@H]1/C=C/O[C@@]2(C)Oc3c(C)c(O)c4c(c3C2=O)C(=O)C=C(NC(=O)/C(C)=C\C=C\[C@H](C)[C@H](O)[C@@H](C)[C@@H](O)[C@@H](C)[C@H](OC(C)=O)[C@@H]1C)C4=O [RIFAMYCIN S] |  |  |  |  |  |  |  |  |  | 0.01 (≈ 0.0144 µM) | 0.01 (≈ 0.0144 µM) | 0.1 (≈ 0.144 µM) | 0.1 (≈ 0.144 µM) | 16 (≈ 23 µM) | 128 (≈ 184 µM)

From ChEMBL document CHEMBL1151278, “Hygrocins a and B, naphthoquinone macrolides from Streptomyces hygroscopicus” (2005)
